Measured values: PubChem BioAssay AID2060625 (Molecular Pharmacology Branch, DTP, NCI, 2025)

System: 186277-243-T-J2-PDC spheroids with HUVEC/MSC, viability
Test: Anticancer human tumor 186277-243-T-J2-PDC patient-derived colon adenocarcinoma cell line growth inhibition [CLK]
Conditions: for IC50: curve of first compound; for viability, T/C: stronger effect = lower value; active = viability on the fitted dose curve at most 10% of control; inactive = the rest
Description: A high-throughput screen of multi-cell type tumor spheroids was designed to identify active combinations of […] and targeted small molecules. Complex spheroids include a stromal component modeled by human endothelial cells (HUVEC) and fibroblasts modeled by human mesenchymal stem cells (MSCs). The concentration ranges selected for each drug and investigational agent were based upon clinically achievable concentrations if the clinical Cmax of the agent was known.
Compounds. The drugs and investigational agents: cirtuvivint (SM08502; NSC835563), CC-671 (NSC850746), vemurafenib (NSC761431), tapotoclax (NSC804041), sotorasib (NSC818433), adagrasib (NSC831453), MRTX-1133 (NSC836407), BAY2416964 (NSC825713), copanlisib (NSC816437), inavolisib (NSC800729), abemaciclib (NSC768073), osimertinib (NSC779217), entinostat (NSC756642), eltanexor (KPT-8602, NSC794443), venetoclax (NSC766270), ceralasertib (NSC777638), bortezomib (NSC756655), olaparib (NSC753686), talazoparib (NSC767125), alisertib (NSC759677), peposertib (NSC802822), gemcitabine (NSC613327), 5-fluorouracil (NSC19893), SN-38 (NSC673596), oxaliplatin (NSC266046), paclitaxel (NSC125973), and doxorubicin (NSC123127), were obtained from the National Cancer Institute (NCI) Developmental Therapeutics Program Chemical Repository. The FDA-approved anticancer drug set is available from the Developmental Therapeutics Program at https://dtp.cancer.gov/organization/dscb/obtaining/available plates.htm. […] The stock solutions were prepared in dimethyl sulfoxide (DMSO, Sigma-Aldrich, St. Louis, MO, cat. D2650), except for the platinum complexes which were prepared in saline (Quality Biological, Gaithersburg, MD, cat. 114-055-101), at 800-fold the tested concentration and stored at -70 degrees C prior to their use. All drugs and investigational agents were tested over a range starting from a high concentration at or near the clinical Cmax and decreasing in half-log increments. If the clinical Cmax for an agent had not been determined, the highest concentration tested was 10 microM.
Cell Culture. All cells were maintained in an incubator at 37 degrees C and 5% CO2 with 95% humidity. The PDC lines were cultured according to standard operating procedures established by the NCI PDMR. Briefly, all PDCs were thawed and cultured in Matrigel-coated flasks prepared with a working solution of 1X Ham's F-12 nutrient mix, without supplementation (Invitrogen, Waltham, MA, cat. 11765054), 100 U/mL penicillin-streptomycin (Invitrogen, cat. 15140122), and 2.5% Matrigel (Corning Inc., Corning, NY, cat. 354248) for the first three passages. The 947758-054-R-J2-PDC line was cultured in 6B/Colon 1A media, which includes advanced DMEM/F-12 (Thermo Fisher Scientific, cat. 12634028), 10 mM HEPES (Thermo Fisher Scientific, cat. 15630080), 1X GlutaMAX supplement (Thermo Fisher Scientific, cat. 35050061), 0.1 mg/mL primocin (InvivoGen, cat. ant-pm-2), 10% defined fetal bovine serum, heat inactivated (HyClone Laboratories Inc., cat. SH30070.03HI), 1.25 mM N-Acetyl-L-cysteine (Sigma-Aldrich, cat. A9165), 10 mM nicotinamide (Sigma-Aldrich, cat. N0636), 1X B-27 supplement (Thermo Fisher Scientific, cat. 17504044), 1X N-2 supplement (Thermo Fisher Scientific, cat. 17502048), and 10 microM Y-27632 dihydrochloride (Tocris Bioscience, cat. 1254). The 876862-298-R-J1-PDC was cultured in 6E media, which includes all 6B/Colon 1A media components plus 50% L-WRN conditioned media (ATCC, cat. CRL-3276), 50 ng/mL recombinant human EGF recombinant protein (hEGF; Thermo Fisher Scientific, cat. PHG0311), 10 ng/mL recombinant human fibroblast growth factor 10 (hGFG-10; PeproTech, cat. 100-26), 1 ng/mL recombinant human fibroblast growth factor 2 (hFGF-2; PeproTech, cat. 100-18B), and 1 µM prostaglandin E2 (PGE2; Tocris, cat. 2296). The 227483-062-R1-J1-PDC line was cultured in Panc media, containing all 6E components except hFGF-2, with the addition of 500 nM SB-431542 (Selleckchem, cat. S1067) and 10 nM gastrin (Tocris, cat. 3006). […]
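Note: compound exposure lasted seven days before readout.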
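Throughout, for viability, T/C: 100% = DMSO vehicle control wells.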

C#Cc1c(F)ccc2cc(O)cc(-c3ncc4c(N5CC6CCC(C5)N6)nc(OCC56CCCN5CC(F)C6)nc4c3F)c12 (configuration not stated) + CN1CCN(c2cc(C(=O)Nc3cc4cc(-c5cnn(C)c5)ccc4cn3)ccn2)CC1
active: viability, T/C (second compound 0.316 µM, first compound 0.316 µM) 6.4% | viability, T/C (second compound 0.316 µM, first compound 1 µM) 4.52% | viability, T/C (second compound 0.316 µM, first compound 3.16 µM) 4.02% | viability, T/C (second compound 0.316 µM, first compound 10 µM) 2.36% | viability, T/C (second compound 1 µM, first compound 0.0316 µM) 0.29% | viability, T/C (second compound 1 µM, first compound 0.1 µM) 0.77% | viability, T/C (second compound 1 µM, first compound 0.316 µM) 0.35% | viability, T/C (second compound 1 µM, first compound 1 µM) 0.39% | viability, T/C (second compound 1 µM, first compound 3.16 µM) 0.43% | viability, T/C (second compound 1 µM, first compound 10 µM) 0.19% | viability, T/C (second compound 3.16 µM, first compound 0.0316 µM) 1.1% | viability, T/C (second compound 3.16 µM, first compound 0.1 µM) 0.65% | viability, T/C (second compound 3.16 µM, first compound 0.316 µM) 0.64% | viability, T/C (second compound 3.16 µM, first compound 1 µM) 1.1% | viability, T/C (second compound 3.16 µM, first compound 3.16 µM) 1.04% | viability, T/C (second compound 3.16 µM, first compound 10 µM) 0.26% | viability, T/C (second compound 10 µM, first compound 0.0316 µM) 0.72% | viability, T/C (second compound 10 µM, first compound 0.1 µM) 0.54% | viability, T/C (second compound 10 µM, first compound 0.316 µM) 0.53% | viability, T/C (second compound 10 µM, first compound 1 µM) 0.64% | viability, T/C (second compound 10 µM, first compound 3.16 µM) 1.33% | viability, T/C (second compound 10 µM, first compound 10 µM) 0.27%
< 31.6 nM: IC50 (second compound 0.316 µM) | IC50 (second compound 1 µM) | IC50 (second compound 3.16 µM) | IC50 (second compound 10 µM)
inactive: viability, T/C (second compound 0.0316 µM, first compound 0.0316 µM) 110% | viability, T/C (second compound 0.0316 µM, first compound 0.1 µM) 88.2% | viability, T/C (second compound 0.0316 µM, first compound 0.316 µM) 76.2% | viability, T/C (second compound 0.0316 µM, first compound 1 µM) 44% | viability, T/C (second compound 0.0316 µM, first compound 3.16 µM) 29.4% | viability, T/C (second compound 0.0316 µM, first compound 10 µM) 15.2% | viability, T/C (second compound 0.1 µM, first compound 0.0316 µM) 73.7% | viability, T/C (second compound 0.1 µM, first compound 0.1 µM) 75.3% | viability, T/C (second compound 0.1 µM, first compound 0.316 µM) 29.7% | viability, T/C (second compound 0.1 µM, first compound 1 µM) 22.9% | viability, T/C (second compound 0.1 µM, first compound 3.16 µM) 16.3% | viability, T/C (second compound 0.1 µM, first compound 10 µM) 9.03% | viability, T/C (second compound 0.316 µM, first compound 0.0316 µM) 16% | viability, T/C (second compound 0.316 µM, first compound 0.1 µM) 11.7%
188 nM: IC50 (second compound 0.1 µM)
891 nM: IC50 (second compound 0.0316 µM)
